What was measured:
[1] = test system: HUVEC (human umbilical vein endothelial cells); assay: HUVEC DNA amount in the well after three days culture; assay type: cell-based; conditions: compared to RAD, FIG. 25
Method: (§1) The peptide solutions shown in Table 19 were loaded in the culture inserts (10 mm diameter, Millicell-CM, Millipore) and gels were formed using cell culture medium (EGM-2-MV, Camblex). Collagen-1 and Matrigel were used as control matrices. HUVEC (human umbilical vein endothelial cells) were plated at 8×10^4 cells on the inserts and cultured up to 7 Days.
The amount of DNA in the well after three days culture was evaluated in selected hydrogels of Table 19. The DNA amount is proportional to the number of the cells.

[2] = test system: HUVEC (human umbilical vein endothelial cells); assay: Endothelial cell migration from beads to hydrogels; assay type: cell-based; conditions: Day 2; compared to RAD; FIGS. 26-27
Method: Endothelial cell migration effect on the hydrogels was evaluated. The endothelial cell migration is important when the vessel has in-growth into the matrix. HUVEC (human umbilical vein endothelial cells) were seeded on Collagen coated Dextran beads (Cytodex3, microcarrier beads, Sigma), then transferred to different hydrogels which selected from Table 19.
FIGS. 26A-26F show the fluorescence microscopy image of beads on the peptide matrix at Day 1 and Day 2 after placing the beads. […] The white bar represents 100 um. On the Day 1, most of the cells stayed on the beads. On the Day 2, the cells were well migrated from the beads to Collagen, PRGmx and KLTmx gel compared to RAD.
The cells are counted in fluorescence microscopy image. The above observation were also confirmed in the graph.

[3] = test system: HUVEC (human umbilical vein endothelial cells); assay: HUVEC cultured 2-dimensionally on hydrogels: cell attachment and morphology; assay type: cell-based
Method: The effect of functional modified peptide matrix to HUVEC (human umbilical vein endothelial cells) was evaluated by culturing cells 2-dimensionally on the gel.
as §1

[4] = test system: chick Chorioallantoic Membrane; assay: Chorioallantoic Membrane (CAM) assay of angiogenesis; assay type: in vivo, chicken; conditions: hydrogel placed Day 8, histology Day 12, FIG. 30
Method: In vivo study of angiogenesis was performed using Chorioallantoic Membrane (CAM) assay. At Day 8 of fertilized chicken egg incubation, hydrogels of 10 mm diameter with 1 mm thickness were transferred to chick Chorioallantoic Membrane. The hydrogels were selected from Table 19 and gels were formed before the transfer. On Day 12, CAMs were collected for histology. The angiogenesis inside and below the hydrogel were evaluated by histological cross section.

Substance: COL: Collagen-1 gel (0.25%); Collagen I gel from rat tail (BD Bioscience), control matrix
- DNA amount in the well [1]: statically higher
- cell migration from the beads to the hydrogel [2]: well migrated
- Cell attachment ([3]; HUVEC cultured on hydrogels): ++++ (++++: near confluence(>70%))
- cell attachment compared to RAD ([3]; HUVEC on hydrogels for two days, confocal, FIGS. 24A-24M): higher cell attachment
- angiogenesis inside and below the hydrogel [4]: no angiogenesis both inside and below the hydrogel

From patent US8022178B2, “Modified self-assembling peptides” (Massachusetts Institute of Technology, priority 2006, dated 2011)
